Measurements reported in ChEMBL document CHEMBL5543099 (Eur J Med Chem, 2024).
Values after ≈ are worked out from the molar mass of the structure shown. Active and inactive are the calls of the source. No cut-off for these calls is given here.

How the values were obtained:
Staphylococcus aureus [1] = assay: Antibacterial activity against methicillin resistant Staphylococcus aureus; format: functional
Enterococcus faecalis = assay: Antimicrobial activity against Enterococcus faecalis ATCC 29212 assessed as inhibition of bacterial growth incubated for 16 to 18 hrs by CLSI protocol based Muller Hinton broth assay; format: functional; conditions: time 16-18 hrs
Staphylococcus aureus [2] = assay: Antibacterial activity against Staphylococcus aureus assessed as reduction in bacterial colony at 8 times of MIC incubated for 8 hrs by time-kill kinetics assay; format: functional, organism-based
Staphylococcus aureus [3] = assay: Antibacterial activity against Staphylococcus aureus assessed as inhibition of bacterial growth incubated for 16 to 20 hrs by CLSI protocol based broth microdilution method; format: functional; conditions: time 16-20 hrs
[4] = Hemolytic activity in sheep RBC assessed as hemolysis incubated for 1 hrs by absorbance based assay; format: toxicity, cell-based, Ovis aries, Erythrocyte; conditions: sheep red blood cells
Staphylococcus aureus [5] = assay: Antimicrobial activity against Staphylococcus aureus ATCC 29213 assessed as inhibition of bacterial growth incubated for 16 to 18 hrs by CLSI protocol based Muller Hinton broth assay; format: functional; conditions: time 16-18 hrs
Staphylococcus aureus [6] = assay: Induction of morphological changes in Staphylococcus aureus assessed as appearance of aggregated membrane sheets at 8 times of MIC incubated for 4 hrs by scanning electron microscopic analysis; format: functional, organism-based
Escherichia coli [7] = assay: Drug resistance, ratio of MIC for Escherichia coli ATCC 25922 incubated for 16 to 18 hrs and measured after 25 passage to MIC for Escherichia coli ATCC 25922 incubated for 16 to 18 hrs; format: functional
Staphylococcus aureus [8] = assay: Antibacterial activity against Staphylococcus aureus assessed as inhibition of bacterial growth by measuring fold change in MIC incubated for 6 hrs in presence of 50% fetal bovine serum by CLSI protocol based Muller Hinton broth assay; format: functional
[9] = Cytotoxicity against human SW620 cells assessed as cell survival rate at 64 microg/ml incubated for 48 hrs by CCK8 assay relative to control; format: toxicity, cell-based, SW-620; conditions: at 64 µg/mL, read-out: Activity
Escherichia coli [10] = assay: Antibacterial activity against Escherichia coli assessed as reduction in bacterial colony at 2 times of MIC incubated for 2 to 24 hrs by time kill kinetics assay; format: functional, organism-based; conditions: time 2-24 hrs
[11] = Cytotoxicity against rat HBZY-1 cells assessed as cell survival rate at 64 microg/ml incubated for 48 hrs by CCK8 assay relative to control; format: toxicity, cell-based; conditions: at 64 µg/mL, read-out: Activity
Cell membrane [12] = assay: Induction of cell membrane damage in Staphylococcus aureus assessed as nucleic acid leakage at 4 times of MIC incubated for 2 hrs by n ultra-micro-volume spectrophotometric analysis; format: cell membranes
Staphylococcus aureus [13] = assay: Antibacterial activity against Staphylococcus aureus assessed as inhibition of bacterial growth incubated for 6 hrs in presence of defibrinated sheep 50% plasma by CLSI protocol based Muller Hinton broth assay; format: functional
Cell membrane [14] = assay: Induction of inner membrane permeabilization in Staphylococcus aureus assessed as fluorescence intensity at 16 microg/ml incubated for 15 mins by PI staining based microplate reader; format: cell membranes; conditions: dose 16.0 µg/ml
Staphylococcus aureus [15] = assay: Drug resistance, ratio of MIC for Staphylococcus aureus ATCC 29213 incubated for 16 to 18 hrs and measured after 16 passages to MIC for Staphylococcus aureus ATCC 29213 incubated for 16 to 18 hrs; format: functional
[16] = system: Stenotrophomonas maltophilia; assay: Antimicrobial activity against Stenotrophomonas maltophilia ATCC 17808 assessed as inhibition of bacterial growth incubated for 16 to 18 hrs by CLSI protocol based Muller Hinton broth assay; format: functional; conditions: time 16-18 hrs
Escherichia coli [17] = assay: Antimicrobial activity against Escherichia coli ATCC 25922 assessed as inhibition of bacterial growth incubated for 16 to 18 hrs by CLSI protocol based Muller Hinton broth assay; format: functional; conditions: time 16-18 hrs
Escherichia coli [18] = assay: Induction of morphological changes in Escherichia coli assessed as disintegration of rod shaped cells at 8 times of MIC incubated for 4 hrs by scanning electron microscopic analysis; format: functional, organism-based
Staphylococcus aureus [19] = assay: Antibacterial activity against Staphylococcus aureus assessed as reduction in bacterial colony incubated upto 24 hrs by time-kill kinetics assay; format: functional
Staphylococcus aureus [20] = assay: Induction of morphological changes in Staphylococcus aureus assessed as irregular spherical appearance at 8 times of MIC incubated for 4 hrs by scanning electron microscopic analysis; format: functional, organism-based
Escherichia coli [21] = assay: Induction of morphological changes in Escherichia coli assessed as shattering of rod shaped cells at 8 times of MIC incubated for 4 hrs by scanning electron microscopic analysis; format: functional, organism-based
Cell membrane [22] = assay: Induction of Cytoplasmic membrane depolarization in Staphylococcus aureus at 8 to 16 microg/ml incubated for 15 mins by fluorescence microplate reader; format: cell membranes; conditions: dose 8-16 µg/ml
Cell membrane [23] = assay: Induction of cell membrane damage in Escherichia coli assessed as nucleic acid leakage at 4 times of MIC incubated for 2 hrs by n ultra-micro-volume spectrophotometric analysis; format: cell membranes
Staphylococcus aureus [24] = assay: Anti-biofilm activity against Staphylococcus aureus assessed as reduction in bacterial density at 16 times of MIC incubated for 24 hrs by confocal laser scanning microscopic analysis; format: functional, organism-based
[25] = Hemolytic activity in defibrinated sheep RBC assessed as hemolysis rate at 1280 microg/ml incubated for 1 hrs relative to control; format: toxicity, cell-based, Ovis aries, Erythrocyte; conditions: defibrinated sheep red blood cells, at 1280 µg/mL, read-out: Activity
Staphylococcus aureus [26] = assay: Antibacterial activity against Staphylococcus aureus assessed as inhibition of bacterial growth incubated for 6 hrs in presence of 50% fetal bovine plasma by CLSI protocol based Muller Hinton broth assay; format: functional
Escherichia coli [27] = assay: Antibacterial activity against Escherichia coli ATCC 25922 incubated for 16 to 18 hrs and measured before 7th passage by CLSI protocol based Muller Hinton broth assay; format: functional, organism-based
Escherichia coli [28] = assay: Induction of morphological changes in Escherichia coli assessed as outer membrane damage at 8 times of MIC incubated for 4 hrs by scanning electron microscopic analysis; format: functional, organism-based
Staphylococcus aureus [29] = assay: Antibacterial activity against Staphylococcus aureus assessed as inhibition of bacterial growth by measuring fold change in MIC incubated for 6 hrs in presence of 50% fetal bovine plasma by CLSI protocol based Muller Hinton broth assay; format: functional
Staphylococcus aureus [30] = assay: Antibacterial activity against Staphylococcus aureus assessed as reduction in bacterial colony at 8 times of MIC incubated for 1 hrs by time-kill kinetics assay; format: functional, organism-based
Staphylococcus aureus [31] = assay: Antimicrobial activity against Staphylococcus aureus ATCC 29213 incubated for 16 to 18 hrs and measured before 9th passage by CLSI protocol based Muller Hinton broth assay; format: functional, organism-based
[32] = Hemolytic activity in defibrinated sheep RBC incubated for 1 hrs; format: toxicity, cell-based, Ovis aries, Erythrocyte; conditions: defibrinated sheep red blood cells
Staphylococcus aureus [33] = assay: Antibacterial activity against Staphylococcus aureus assessed as inhibition of bacterial growth by measuring fold change in MIC incubated for 6 hrs in presence of defibrinated sheep 50% plasma by CLSI protocol based Muller Hinton broth assay; format: functional
Staphylococcus aureus [34] = assay: Antibacterial activity against persistent Staphylococcus aureus assessed as reduction in bacterial colony at 16 times of MIC measured for 24 hrs by CLSI protocol based Muller Hinton broth assay; format: functional, organism-based
Staphylococcus aureus [35] = assay: Anti-biofilm activity against Staphylococcus aureus assessed as reduction in extended colonies in biofilm at 16 times of MIC incubated for 24 hrs by confocal laser scanning microscopic analysis; format: functional, organism-based
Staphylococcus aureus [36] = assay: Induction of morphological changes in Staphylococcus aureus assessed as disintegrated membrane blocks at 8 times of MIC incubated for 4 hrs by scanning electron microscopic analysis; format: functional, organism-based
Staphylococcus aureus [37] = assay: Anti-biofilm activity against Staphylococcus aureus assessed as punctate distribution of bacteria in biofilm at 32 times of MIC incubated for 24 hrs by confocal laser scanning microscopic analysis; format: functional, organism-based
Staphylococcus aureus [38] = assay: Anti-biofilm activity against Staphylococcus aureus assessed as reduction in bacteria in biofilm at 32 times of MIC incubated for 24 hrs by confocal laser scanning microscopic analysis; format: functional, organism-based
Staphylococcus aureus [39] = assay: Drug resistance, ratio of MIC for Staphylococcus aureus ATCC 29213 incubated for 16 to 18 hrs and measured after 2 passages to MIC for Staphylococcus aureus ATCC 29213 incubated for 16 to 18 hrs; format: functional
Staphylococcus aureus [40] = assay: Antibacterial activity against vancomycin intermediate Staphylococcus aureus assessed as inhibition of bacterial growth incubated for 24 hrs by broth microdilution method; format: functional
Staphylococcus aureus [41] = assay: Antibacterial activity against methicilin-resistant Staphylococcus aureus assessed as inhibition of bacterial growth incubated for 24 hrs by broth microdilution method; format: functional
Cell membrane [42] = assay: Induction of Cytoplasmic membrane depolarization in Staphylococcus aureus at 16 microg/ml incubated for 15 mins by DiSC3(5) dye based fluorescence microplate reader; format: cell membranes; conditions: dose 16.0 µg/ml
Cell membrane [43] = assay: Induction of inner membrane permeabilization in Staphylococcus aureus assessed as increase in fluorescence intensity at 16 microg/ml incubated for 15 mins by PI staining based microplate reader; format: cell membranes; conditions: dose 16.0 µg/ml

## COc1c2c(cc(F)c1N1CCN(CC(=O)Nc3ncc([N+](=O)[O-])s3)CC1)C(=O)C(C(=O)O)=CC2C1CC1 (stereo unspecified)
Staphylococcus aureus [1]
  MIC: 0.01 µg/mL (≈ 0.0183 µM)

## CN[C@H](CC(C)C)C(=O)N[C@H]1C(=O)N[C@@H](CC(N)=O)C(=O)N[C@H]2C(=O)N[C@H]3C(=O)N[C@H](C(=O)N[C@H](C(=O)O)c4cc(O)cc(O)c4-c4cc3ccc4O)[C@H](O)c3ccc(c(Cl)c3)Oc3cc2cc(c3O[C@@H]2O[C@H](CO)[C@@H](O)[C@H](O)[C@H]2O[C@H]2C[C@](C)(N)[C@H](O)[C@H](C)O2)Oc2ccc(cc2Cl)[C@H]1O [VANCOMYCIN]
Enterococcus faecalis
  MIC: 2 µg/mL (≈ 1.38 µM)
Staphylococcus aureus [2]
  Activity: Active

## CCCCCCCNC(=O)C[N+](C)(C)CCCOc1ccc(OCCC[N+](C)(C)CC(=O)NCCCCCCC)cc1.[Br-].[Br-]
Staphylococcus aureus [3]
  MIC: 0.5 µg/mL
[4]
  HC50 at 1 h: 1220 µg/mL

## CCCCCCCCNC(=O)C[n+]1ccc(C(=O)N2CCN(c3cc4c(cc3F)c(=O)c(C(=O)O)cn4C3CC3)CC2)cc1.[Br-]
Staphylococcus aureus [5]
  MIC: 2 µg/mL
Staphylococcus aureus [6]
  Activity: Active
Escherichia coli [7]
  Ratio: 2
Staphylococcus aureus [8]
  fold change (FC): 2
[9]
  viability at 48 h, 64 microg/ml: 68.2%
Escherichia coli [10]
  Activity: Active
[11]
  viability at 48 h, 64 microg/ml: 96.9%
Cell membrane [12]
  Activity: Active
Staphylococcus aureus [13]
  MIC: 4 µg/mL
Cell membrane [14]
  Flu intensity: 300
Staphylococcus aureus [15]
  Ratio: 4
[16]
  MIC: 8 µg/mL
Escherichia coli [17]
  MIC: 2 µg/mL
Escherichia coli [18]
  Activity: Active
Staphylococcus aureus [19]
  MIC: 2 µg/mL
Staphylococcus aureus [20]
  Activity: Active
Escherichia coli [21]
  Activity: Active
Cell membrane [22]
  Activity: Active
Cell membrane [23]
  Activity: Active
Staphylococcus aureus [24]
  Activity: Active
[25]
  hemolysis at 1 h, 1280 microg/ml: 5.1%
Staphylococcus aureus [26]
  MIC: 4 µg/mL
Escherichia coli [27]
  Activity: Active
Enterococcus faecalis
  MIC: 2 µg/mL
Escherichia coli [28]
  Activity: Active
Staphylococcus aureus [29]
  fold change (FC): 2
Staphylococcus aureus [30]
  Activity: Active
Staphylococcus aureus [31]
  Activity: Active
[32]
  HC50 at 1 h: > 1280 µg/mL
Staphylococcus aureus [33]
  fold change (FC): 2
Staphylococcus aureus [34]
  Activity: Active
Staphylococcus aureus [35]
  Activity: Active
Staphylococcus aureus [36]
  Activity: Active
Staphylococcus aureus [37]
  Activity: Active
Staphylococcus aureus [38]
  Activity: Active

## CCn1cc(C(=O)O)c(=O)c2cc(F)c(N3CCNCC3)cc21 [NORFLOXACIN]
Staphylococcus aureus [15]
  Ratio: 64
Staphylococcus aureus [39]
  Ratio: 2

## CCCCCCCC[n+]1ccc(CN[C@@]2(C)C[C@H](O[C@H]3[C@H](Oc4c5cc6cc4Oc4ccc(cc4Cl)[C@@H](O)[C@@H](NC(=O)[C@@H](CC(C)C)NC)C(=O)N[C@@H](CC(N)=O)C(=O)N[C@H]6C(=O)N[C@H]4C(=O)N[C@H](C(=O)N[C@@H](C(=O)O)c6cc(O)cc(O)c6-c6cc4ccc6O)[C@H](O)c4ccc(c(Cl)c4)O5)O[C@H](CO)[C@@H](O)[C@@H]3O)O[C@@H](C)[C@H]2O)cc1
Staphylococcus aureus [40]
  MIC: 0.11 µM
Staphylococcus aureus [41]
  MIC: 0.1 µM

## O=C(O)c1cn(C2CC2)c2cc(N3CCNCC3)c(F)cc2c1=O
Cell membrane [42]
  Activity: inactive
Cell membrane [43]
  Activity: inactive
